From US11744898B2, “Multi-arm polymer conjugates of TLR agonist compounds and related immunotherapeutic treatment methods” (Nektar Therapeutics, priority 2017, dated 2023)
Read-outs that look alike come from different tables or passages of the source.

Columns and labels:
CT26 tumor cells = assay: Murine CT-26 colon tumor model, two flanks; 800 μg 4-arm-PEG20k-CM-N-R848 intra-/peritumorally day 0, RSLAIL-2 0.8 mg/kg i.v. days 0, 9, 18; assay type: in vivo, Balb/c mice
TLR7/8 = assay: TLR7/8-dependent cytokine production in plasma after single 10 μg intratumoral administration, CT26 tumor bearing mice; assay type: in vivo, Balb/c mice
Protocol: Hank's Balanced Salt Solution) was administered intratumorally to Balb/c mice bearing CT26 tumor. […] (Conjugate doses and concentrations are expressed based on TLR 7/8 agonist (e.g., resiquimod or other TLR 7/8 agonist) content, wherein the mass of the TLR 7/8 agonist is expressed independent of PEG mass). Plasma was collected at pre-determined time points for analysis of level of IFN-gamma, IL-2, IL-4, IL5, IL-6, IL-1 beta, IL-10, IL-12p70, KC/GRO, TNF-alpha, and IFN-alpha. For assessing IFN-gamma, IL-2, IL-4, IL5, IL-6, IL-1 beta, IL-10, IL-12p70, KC/GRO, and TNF alpha, an electrochemiluminescence assay was performed on duplicate samples using capture antibody precoated 96 well multispot plates from Meso Scale Discovery (MSD; Gaithersburg, Md., US). […] Plates were immediately read using SECTOR Imager 2400 and data was quantitated using Discovery Workbench software version 4.0 (MSD, Gaithersburg, Md., US). Mouse IFN alpha was measured with the Verikine mouse Interferon-Alpha ELISA kit (PBL, Piscataway, N.J., USA), according to the instructions of the manufacturer. After the addition of a stop solution, the absorbance at 450 nm was determined using BioTek μQuant microplate reader (Biotek; Winooski, Vt., USA). The ELISA data was quantitated using Biotek Gen5 software (Biotek; Winooski, Vt., USA). Data are represented as the mean of the fold-change of replicates.

TLR7 pathway = conditions: 2 hours and 6 hours following treatment with Compound 6
Protocol: Cytokine analysis (in CT26 tumor-bearing mice): Tumor and plasma samples were obtained at multiple time points following administration for cytokine analysis. RNA was isolated from treated tumors to assess induction of type I interferon- and NFκB-dependent gene expression. A panel of pro-inflammatory cytokines was measured from tumor tissue and plasma by multiplex protein measurement assay.

hTLR7 = biological target: T1, hTLR7 (Homo sapiens, UniProt Q9NYK1); assay: SEAP reporter gene assay in HEK293 cells stably transfected with human TLR receptor; assay type: cell-based; conditions: downstream hTLR7 and hTLR8
T1 construct: expressed in transfected cells; host or cells: HEK293
T1 sequence (Q9NYK1 27-1049): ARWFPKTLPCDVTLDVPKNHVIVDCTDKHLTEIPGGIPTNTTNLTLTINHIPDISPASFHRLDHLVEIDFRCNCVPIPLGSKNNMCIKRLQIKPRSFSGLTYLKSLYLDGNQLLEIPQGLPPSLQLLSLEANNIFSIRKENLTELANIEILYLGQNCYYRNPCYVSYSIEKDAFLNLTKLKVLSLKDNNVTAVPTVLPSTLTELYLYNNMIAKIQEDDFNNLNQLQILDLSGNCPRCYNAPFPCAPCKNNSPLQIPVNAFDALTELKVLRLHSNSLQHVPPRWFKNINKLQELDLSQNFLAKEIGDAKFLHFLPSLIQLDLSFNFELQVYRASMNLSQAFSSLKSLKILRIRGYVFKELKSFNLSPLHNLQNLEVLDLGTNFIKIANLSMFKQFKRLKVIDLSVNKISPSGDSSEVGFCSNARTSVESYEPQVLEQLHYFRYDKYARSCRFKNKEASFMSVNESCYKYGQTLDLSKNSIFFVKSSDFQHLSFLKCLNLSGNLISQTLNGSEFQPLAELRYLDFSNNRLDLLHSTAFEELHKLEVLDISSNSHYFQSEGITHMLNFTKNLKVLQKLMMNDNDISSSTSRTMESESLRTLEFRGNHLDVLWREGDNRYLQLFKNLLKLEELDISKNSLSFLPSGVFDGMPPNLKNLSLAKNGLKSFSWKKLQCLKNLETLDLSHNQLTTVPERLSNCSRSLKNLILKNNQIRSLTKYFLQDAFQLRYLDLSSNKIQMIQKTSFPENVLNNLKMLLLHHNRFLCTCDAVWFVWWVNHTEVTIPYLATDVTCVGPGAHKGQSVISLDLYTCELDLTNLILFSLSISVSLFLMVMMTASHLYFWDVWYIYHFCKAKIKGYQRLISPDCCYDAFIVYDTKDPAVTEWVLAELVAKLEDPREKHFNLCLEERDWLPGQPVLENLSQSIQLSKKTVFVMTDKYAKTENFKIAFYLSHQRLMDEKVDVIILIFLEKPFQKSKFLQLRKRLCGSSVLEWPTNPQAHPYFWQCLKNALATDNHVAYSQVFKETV
Source text: Parental cell lines (Null1 and Null1K, stably transfected with the SEAP reports but without hTLR receptor expression) were used as negative controls.

[1] = system: proinflammatory cytokines IFNα, IFNγ, TNFα, IL-6 and IL-12; assay: Plasma cytokine induction after Compound 6 or resiquimod with staggered RSLAIL-2 in CT26 model; assay type: in vivo, Balb/c mice
Protocol: The concentration of proinflammatory cytokines IFNα, IFNγ, TNFα, IL-6 and IL-12 was determined in plasma by multiplex protein measurement assay at indicated time points post dose.

[2] = system: bilateral CT26 subcutaneous tumors
[3] = 2 hours after single 10 μg intratumoral administration
[4] = 6 hours after single 10 μg intratumoral administration
[5] = plasma, 10 μg intra/peritumoral

Source text for EMT6 tumor cells: In vivo model: Mice used were ˜10 weeks old female Balb/c strain with 2 million EMT6 tumor cells implanted on each flank. Cells were allowed to mature into tumors for 7 days reaching a volume of 75-150 mm^3 volume.
Measurements: Tumor volumes were collected by caliper measurements 2-3 times per week and calculated using formula: L×W^2/2 where L is tumor length and W is tumor width.

**Q.** What does the source list for 4-arm-PEG20k-CM-N—R848 [Compound 1]?
**A.** Survival Proportions (CT26 tumor cells; day 0 after treatment start): 100%; Survival Proportions (CT26 tumor cells; day 12 after treatment start): 80%; Survival Proportions (CT26 tumor cells; day 16 after treatment start): 70%; Survival Proportions (CT26 tumor cells; day 19 after treatment start): 40%; Survival Proportions (CT26 tumor cells; day 21 after treatment start): 30%; Survival Proportions (CT26 tumor cells; day 47 after treatment start (end of experiment)): 30%; animals with a complete response (both treated and untreated side tumors eliminated) (CT26 tumor cells; end of experiment, day 47): 20%; animals with a partial response (one of the two tumors eradicated) (CT26 tumor cells; end of experiment, day 47): 10%

**Q.** With “4-arm-PEG20k-CM-glycine-N-R848 [Compound 6]” as the substance, how does the “IFNa fold change (treated/vehicle)” value (TLR7/8; [3]) read?
**A.** The value was “+ (+<50)”.

**Q.** And the “IL6 fold change (treated/vehicle)” value (TLR7/8; [3])?
**A.** Its value is “++ (50≤++<200)”.

**Q.** What about the “IL12 fold change (treated/vehicle)” value (TLR7/8; [3]) of the same substance?
**A.** Its value is “+ (+<50)”.

**Q.** And the “KC/GRO fold change (treated/vehicle)” value (TLR7/8; [3])?
**A.** The value was “+ (+<50)”.

**Q.** And the “TNFa fold change (treated/vehicle)” value (TLR7/8; [3])?
**A.** Its value is “+ (+<50)”.

**Q.** And the “IFNg fold change (treated/vehicle)” value (TLR7/8; [4])?
**A.** Its value is “+++ (10≤+++<20)”.

**Q.** And the “IL10 fold change (treated/vehicle)” value (TLR7/8; [4])?
**A.** Its value is “+ (+<5)”.

**Q.** And the “concentration of systemic cytokines compared with tumor (IL-6, KC/GRO, TNF-α, IL-1β, IL-5, IFN-α, IFN-γ, IL-2, IL-12p70)” value (TLR7 pathway)?
**A.** The value was “significantly less than that in the tumor”.

**Q.** What about the “fold higher concentration for reporter activation compared to resiquimod” value (hTLR7) of the same substance?
**A.** The value was over 20 fold.

**Q.** And the “induction of cytokines in plasma, in words” value ([1]; 1 μg single intra/peritumoral dose)?
**A.** Its value is “very modest induction of all cytokines in plasma”.

**Q.** And the “pro-inflammatory cytokine induction in blood, in words” value ([1]; 10 μg single intra/peritumoral dose)?
**A.** Its value is “robust pro-inflammatory cytokine induction in blood”.

**Q.** And the “time of peak level of IFN-γ” value [1, 5]?
**A.** The value was 6 h.

**Q.** What about the “time of peak levels of IFNα, TNFα, IL-6 and IL-12” value [1, 5] of the same substance?
**A.** Its value is 2 h.

**Q.** And the “Survival Proportions” value (EMT6 tumor cells; day 0 after treatment start)?
**A.** Its value is “++++ (75%≤++++<100%)”.

**Q.** And the “Survival Proportions” value (EMT6 tumor cells; day 3 after treatment start)?
**A.** Its value is “++++ (75%≤++++<100%)”.

**Q.** What about the “Survival Proportions” value (EMT6 tumor cells; day 8 after treatment start) of the same substance?
**A.** Its value is “++++ (75%≤++++<100%)”.

**Q.** What about the “Survival Proportions” value (EMT6 tumor cells; day 13 after treatment start) of the same substance?
**A.** Its value is “++++ (75%≤++++<100%)”.

**Q.** And the “Survival Proportions” value (EMT6 tumor cells; day 15 after treatment start)?
**A.** The value was “++++ (75%≤++++<100%)”.

**Q.** And the “Survival Proportions” value (EMT6 tumor cells; day 20 after treatment start)?
**A.** The value was “+++ (50%≤+++<75%)”.

**Q.** What about the “Survival Proportions” value (EMT6 tumor cells; day 27 after treatment start) of the same substance?
**A.** Its value is “++ (25%≤++<50%)”.

**Q.** What about the “Survival Proportions” value (EMT6 tumor cells; day 34 after treatment start) of the same substance?
**A.** Its value is “+ (0%≤+<25%)”.

**Q.** And the “Survival Proportions” value (EMT6 tumor cells; day 42 after treatment start)?
**A.** Its value is “+ (0%≤+<25%)”.

**Q.** What about the “Survival Proportions” value (EMT6 tumor cells; day 48 after treatment start) of the same substance?
**A.** Its value is “+ (0%≤+<25%)”.

**Q.** And the “Survival Proportions” value (EMT6 tumor cells; day 55 after treatment start)?
**A.** Its value is “none”.

**Q.** What about the “survival of the animals” value (EMT6 tumor cells; end of the study at day 55 after commencement of dosing) of the same substance?
**A.** The value was “no surviving animals”.

**Q.** What about the “CD8+ T cells in tumors” value ([2]; after combination treatment with RSLAIL-2 (0.8 mg/kg i.v. four days after Compound 6), day 7) of the same substance?
**A.** The value was “selective Compound 6-dose dependent increase”.

**Q.** And the “relative fraction of regulatory T cells in tumors” value ([2]; after combination treatment with RSLAIL-2, day 7)?
**A.** The value was “decreased dramatically”.

**Q.** What about the “CD8:Treg ratio in the blood” value ([2]; both treatment groups (10 μg or 0.1 μg) after RSLAIL-2) of the same substance?
**A.** The value was “overall reduction”.

**Q.** What about the “intratumoral neutrophils in treated tumors” value ([2]; one day after treatment, 10 μg dose) of the same substance?
**A.** The value was “increase in intratumoral neutrophils”.
